Assay results as given in patent US20130275051A1, “COMPUTING DEVICE AND METHOD FOR DETECTING CELL DEATH IN A BIOLOGICAL SAMPLE” (priority 2011, published 2013).

System: human bladder carcinoma (HT-1376) tumors
Assay: OCT decorrelation time in tumors grown in dorsal skin-fold window chamber model
Type: in vivo
Conditions: mice, single tail vein injection 100 mg/m2, 0, 24 and 48 hours, FIG. 11; cell death confirmed by histological data
Description: An in-vivo tumor model used in the successful experiment consisted of human bladder carcinoma (HT-1376) tumors grown within a dorsal skin-fold window chamber model in a plurality of mice. […] A custom built 36 kHz swept source OCT system (similar to system 100) was used for in-vivo acquisition of data. For each imaging time point, two-dimensional frames of OCT data were acquired at 200 frames per second over approximately 8 seconds. Each frame contained 180 axial scans and covered a lateral distance of 3 mm. Data sets were acquired from imaging planes within the window chamber of each mouse. Method 200 was applied to each pixel location of an ROI within tumors at 0 hours, 24 hours and 48 hours to obtain an average decorrelation time at each of 0 hours, 24 hours and 48 hours.

N.N.[Cl][Pt][Cl] [cisplatin]
average decorrelation time within tumor ROI: increase in average decorrelation time
